Reference: patent US6372446B1, “Method of selectively determining a fungal biomass” (Mycometer ApS, priority 1997, dated 2002)

Legend:
[1] = test system: Penicillium commune (IBT 13713); assay: Screening of fungi for enzyme activity with 4-methylumbelliferone-labelled substrates; format: cell-based; settings: substrate 10 μM, 25° C., pH 5; for Enzyme activity: amount of released 4-methylumbelliferone: mineral medium; for Enzyme activity: amount of released 4-methylumbelliferone during 5 hours of incubation: vegetable juice medium
[2] = test system: human hexosaminidase; assay: Cleavage of substrate in human blood and plasma samples; format: biochemical
Description: The diagnostic method detects fungal β-N-acetylhexosaminidase activity in human plasma. […] However, it was discovered that this human hexosaminidase activity can be eliminated by a pre-treatment step comprising precipitation e.g. by adding ammonium sulphate (70% saturation) to the human plasma samples. […] In the samples containing C. albicans culture fluid more than 75% of the fungal β-N-acetylhexosaminidase activity remained after precipitation step to eliminate interfering human enzyme activity. […] After incubation, 300 μl Tris buffer (2.5 M) was added to the mixture to increase the pH to above 9 and the fluorescence measured. This procedure was tested on plasma from different control subjects with no known previous fungal infections. Culture fluids from cultivation of C. albicans or of A. fumigatus containing β-N-acetylhexosaminidase activity were added to the plasma samples. […] After the incubation, Tris buffer was added and the fluorescence formed was measured against the control samples. The presence of fungal β-N-acetylhexosaminidase activity was detected and the fluorescence was proportional to the amount of fungal β-N-acetylhexosaminidase added.

[3] = test system: Aspergillus versicolor (IBT 13738); assay: Screening of fungi for enzyme activity with 4-methylumbelliferone-labelled substrates; format: cell-based; settings: substrate 10 μM, 25° C., pH 5; for Enzyme activity: amount of released 4-methylumbelliferone: mineral medium; for Enzyme activity: amount of released 4-methylumbelliferone during 5 hours of incubation: vegetable juice medium
[4] = test system: Paecilomyces farinosus (AGM 5); assay: as above; format: cell-based; settings: substrate 10 μM, 25° C., pH 5; for Enzyme activity: amount of released 4-methylumbelliferone: mineral medium; for Enzyme activity: amount of released 4-methylumbelliferone during 5 hours of incubation: vegetable juice medium
[5] = test system: Aureobasidium pullulans (QM 3092); assay: as above; format: cell-based; settings: substrate 10 μM, 25° C., pH 5; for Enzyme activity: amount of released 4-methylumbelliferone during 5 hours of incubation: Aureobasidium pulluians (QM 3092), vegetable juice medium; for Enzyme activity: amount of released 4-methylumbelliferone: Aureobasidium pullulans (QM 3092), mineral medium
[6] = test system: Eurotium sp. (AAS 36); assay: as above; format: cell-based; settings: substrate 10 μM, 25° C., pH 5; for Enzyme activity: amount of released 4-methylumbelliferone: mineral medium; for Enzyme activity: amount of released 4-methylumbelliferone during 5 hours of incubation: vegetable juice medium
[7] = test system: Sodaria fimicola (AAS 17); assay: as above; format: cell-based; settings: substrate 10 μM, 25° C., pH 5; for Enzyme activity: amount of released 4-methylumbelliferone: mineral medium; for Enzyme activity: amount of released 4-methylumbelliferone during 5 hours of incubation: vegetable juice medium
[8] = test system: Schizophyllum commune (AGM 25); assay: as above; format: cell-based; settings: substrate 10 μM, 25° C., pH 5; for Enzyme activity: amount of released 4-methylumbelliferone: mineral medium; for Enzyme activity: amount of released 4-methylumbelliferone during 5 hours of incubation: vegetable juice medium
[9] = test system: Ascobolus crenulatus (AAS 1); assay: as above; format: cell-based; settings: substrate 10 μM, 25° C., pH 5; for Enzyme activity: amount of released 4-methylumbelliferone: mineral medium; for Enzyme activity: amount of released 4-methylumbelliferone during 5 hours of incubation: vegetable juice medium
[10] = test system: all fungi tested; assay: Screening of a diverse selection of fungi for ability to degrade 11 substrates (summary); format: cell-based; settings: mineral medium and vegetable juice medium
Procedure: A number of fungi representing different taxonomic groupings were screened for enzyme activity. The fungi were grown for in 24 well plates (Nunclon Multidish, Life Technologies A/S) (well volume 3.4 ml) containing 1.5 ml of agarized growth medium. After a growth period of 10 days at 25° C., 1.5 ml citrate-phosphat buffer (pH 5) were added to the wells and one of 11 enzyme substrates were then added to each well and incubated for 5 hours at 25° C. after which the fluorescence of each well was measured. For each fungus two wells were incubated with each enzyme substrate. All substrates were used in a final concentration of 10 μM. The substrate only and the organism plus the agarized medium were included as controls. […] The fungi subjected to the assaying procedure were all obtained from the culture collection of the Department of General Microbiology at the University of Copenhagen, Denmark.

[11] = test system: Aspergillus oryzae (AGM 11); assay: Screening of fungi for enzyme activity with 4-methylumbelliferone-labelled substrates; format: cell-based; settings: substrate 10 μM, 25° C., pH 5; for Enzyme activity: amount of released 4-methylumbelliferone: mineral medium; for Enzyme activity: amount of released 4-methylumbelliferone during 5 hours of incubation: vegetable juice medium
[12] = test system: Cladosporium herbarum (AGM 8); assay: as above; format: cell-based; settings: substrate 10 μM, 25° C., pH 5; for Enzyme activity: amount of released 4-methylumbelliferone: mineral medium; for Enzyme activity: amount of released 4-methylumbelliferone during 5 hours of incubation: vegetable juice medium
[13] = test system: Trametes versicolor (AGM 24); assay: as above; format: cell-based; settings: substrate 10 μM, 25° C., pH 5; for Enzyme activity: amount of released 4-methylumbelliferone: mineral medium; for Enzyme activity: amount of released 4-methylumbelliferone during 5 hours of incubation: vegetable juice medium
[14] = test system: Rhizomucor pusillus (AAS 300); assay: as above; format: cell-based; settings: substrate 10 μM, 25° C., pH 5; for Enzyme activity: amount of released 4-methylumbelliferone: mineral medium; for Enzyme activity: amount of released 4-methylumbelliferone during 5 hours of incubation: vegetable juice medium
[15] = test system: Mucor racemosus (AAS 310); assay: as above; format: cell-based; settings: substrate 10 μM, 25° C., pH 5; for Enzyme activity: amount of released 4-methylumbelliferone: mineral medium; for Enzyme activity: amount of released 4-methylumbelliferone during 5 hours of incubation: vegetable juice medium
[16] = test system: Penicillium solitum (IBT 13771); assay: as above; format: cell-based; settings: substrate 10 μM, 25° C., pH 5; for Enzyme activity: amount of released 4-methylumbelliferone: mineral medium; for Enzyme activity: amount of released 4-methylumbelliferone during 5 hours of incubation: vegetable juice medium

With CC(=O)N[C@H]1[C@H](Oc2ccc3c(C)cc(=O)oc3c2)O[C@H](CO)[C@@H](O)[C@@H]1O [substrate 3, 4-methylumbelliferyl N-acetyl-β-D-blucosaminide] the “Enzyme activity: amount of released 4-methylumbelliferone” value [1] was “** (1 ≦ ** 2)”, the “Enzyme activity: amount of released 4-methylumbelliferone during 5 hours of incubation” value (“Enzyme activity: amount … of incubation” for short) [1] was “*** (2 ≦ ***)” and the “cleavage by human hexosaminidase” value [2] was “also cleaved by human hexosaminidase”. For the same compound, the “Enzyme activity: amount of released 4-methylumbelliferone” value [3] was “** (1 ≦ ** 2)”, the “Enzyme activity: amount … of incubation” value [3] was “*** (2 ≦ ***)” and the “Enzyme activity: amount of released 4-methylumbelliferone” value [4] was “*** (2 ≦ ***)”. For the same compound, the “Enzyme activity: amount … of incubation” value [4] was “*** (2 ≦ ***)”, the “Enzyme activity: amount … of incubation” value [5] was “*** (2 ≦ ***)” and the “Enzyme activity: amount of released 4-methylumbelliferone” value [5] was “*** (2 ≦ ***)”. The “Enzyme activity: amount of released 4-methylumbelliferone” value [6] was “*** (2 ≦ ***)”, the “Enzyme activity: amount … of incubation” value [6] was “*** (2 ≦ ***)” and the “Enzyme activity: amount of released 4-methylumbelliferone” value [7] was “** (1 ≦ ** 2)”. For the same compound, the “Enzyme activity: amount … of incubation” value [7] was “*** (2 ≦ ***)”, the “Enzyme activity: amount of released 4-methylumbelliferone” value [8] was “*** (2 ≦ ***)” and the “Enzyme activity: amount … of incubation” value [8] was “*** (2 ≦ ***)”. For the same compound, the “Enzyme activity: amount of released 4-methylumbelliferone” value [9] was “*** (2 ≦ ***)”, the “Enzyme activity: amount … of incubation” value [9] was “*** (2 ≦ ***)” and the “ability to degrade the substrate” value [10] was “could be demonstrated in all fungi tested”. For the same compound, the “Enzyme activity: amount of released 4-methylumbelliferone” value [11] was “*** (2 ≦ ***)”, the “Enzyme activity: amount … of incubation” value [11] was “*** (2 ≦ ***)” and the “Enzyme activity: amount of released 4-methylumbelliferone” value [12] was “** (1 ≦ ** 2)”. For the same compound, the “Enzyme activity: amount … of incubation” value [12] was “** (1 ≦ ** 2)”, the “Enzyme activity: amount of released 4-methylumbelliferone” value [13] was “** (1 ≦ ** 2)” and the “Enzyme activity: amount … of incubation” value [13] was “*** (2 ≦ ***)”. For the same compound, the “Enzyme activity: amount of released 4-methylumbelliferone” value [14] was “* (0.4 ≦ * < 1)”, the “Enzyme activity: amount … of incubation” value [14] was “*** (2 ≦ ***)” and the “Enzyme activity: amount of released 4-methylumbelliferone” value [15] was “*** (2 ≦ ***)”. The “Enzyme activity: amount … of incubation” value [15] was “*** (2 ≦ ***)”, the “Enzyme activity: amount of released 4-methylumbelliferone” value [16] was “*** (2 ≦ ***)” and the “Enzyme activity: amount … of incubation” value [16] was “*** (2 ≦ ***)”.
In the case of CC(=O)N[C@H]1[C@H](Oc2ccc3c(C)cc(=O)oc3c2)O[C@H](CO)[C@@H](O[C@@H]2O[C@H](CO)[C@@H](O[C@@H]3O[C@H](CO)[C@@H](O)[C@H](O)[C@H]3NC(C)=O)[C@H](O)[C@H]2NC(C)=O)[C@@H]1O [substrate 4, 4-methylumbelliferyl β-D-N,N′,N″triacetylchitotrioside], the “Enzyme activity: amount of released 4-methylumbelliferone” value [1] is reported as 0 µmol, the “Enzyme activity: amount … of incubation” value [1] is reported as “*** (2 ≦ ***)” and the “Enzyme activity: amount of released 4-methylumbelliferone” value [3] is reported as “* (0.4 ≦ * < 1)”. For the same compound, the “Enzyme activity: amount … of incubation” value [3] was “*** (2 ≦ ***)”, the “Enzyme activity: amount of released 4-methylumbelliferone” value [4] was “** (1 ≦ ** 2)” and the “Enzyme activity: amount … of incubation” value [4] was “*** (2 ≦ ***)”. The “Enzyme activity: amount … of incubation” value [5] was “*** (2 ≦ ***)”, the “Enzyme activity: amount of released 4-methylumbelliferone” value [5] was “*** (2 ≦ ***)” and the “Enzyme activity: amount of released 4-methylumbelliferone” value [6] was “** (1 ≦ ** 2)”. For the same compound, the “Enzyme activity: amount … of incubation” value [6] was “** (1 ≦ ** 2)”, the “Enzyme activity: amount of released 4-methylumbelliferone” value [7] was “** (1 ≦ ** 2)” and the “Enzyme activity: amount … of incubation” value [7] was “*** (2 ≦ ***)”. The “Enzyme activity: amount of released 4-methylumbelliferone” value [8] was “** (1 ≦ ** 2)”, the “Enzyme activity: amount … of incubation” value [8] was “*** (2 ≦ ***)” and the “Enzyme activity: amount of released 4-methylumbelliferone” value [9] was “** (1 ≦ ** 2)”. The “Enzyme activity: amount … of incubation” value [9] was “** (1 ≦ ** 2)”, the “ability to degrade the substrate” value [10] was “could be demonstrated in all fungi tested” and the “Enzyme activity: amount of released 4-methylumbelliferone” value [11] was “** (1 ≦ ** 2)”. For the same compound, the “Enzyme activity: amount … of incubation” value [11] was “*** (2 ≦ ***)”, the “Enzyme activity: amount of released 4-methylumbelliferone” value [12] was “* (0.4 ≦ * < 1)” and the “Enzyme activity: amount … of incubation” value [12] was “* (0.4 ≦ * < 1)”. For the same compound, the “Enzyme activity: amount of released 4-methylumbelliferone” value [13] was “** (1 ≦ ** 2)”, the “Enzyme activity: amount … of incubation” value [13] was “*** (2 ≦ ***)” and the “Enzyme activity: amount of released 4-methylumbelliferone” value [14] was “*** (2 ≦ ***)”. The “Enzyme activity: amount … of incubation” value [14] was “*** (2 ≦ ***)”, the “Enzyme activity: amount of released 4-methylumbelliferone” value [15] was “** (1 ≦ ** 2)” and the “Enzyme activity: amount … of incubation” value [15] was “*** (2 ≦ ***)”. For the same compound, the “Enzyme activity: amount of released 4-methylumbelliferone” value [16] was “** (1 ≦ ** 2)” and the “Enzyme activity: amount … of incubation” value [16] was “*** (2 ≦ ***)”.
